Consider 5 compounds from US20240092758A1, “IMIDAZOLO INDAZOLE COMPOUNDS AS JAK INHIBITORS” (Theravance Biopharma R&D IP, LLC, priority 2021, published 2024).

SMILES strings stand for the structures.

Data set [1] has as its system IL-13 induced STAT6 phosphorylation in BEAS-2B human lung epithelial cells. Description: Cellular JAKI potency assay (BEAS-2B). Type of data set: cell-based. Particulars: Homo sapiens, BEAS-2B, BEAS-2B cells, read-out: BEAS2B pIC50 (converted). The gist of the method: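 BEAS-2B cells were preincubated with compound (0.1% DMSO) in HBSS/HEPES/BSA for 1 h at 37 °C, then stimulated with IL-13 (80 ng/mL before addition) for 30 min. After lysis, pSTAT6 (Tyr641) was quantified by AlphaLISA SureFire; IC50 from a 4-parameter fit of percent inhibition, reported as pIC50.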

The target in a further data set is TYK2 (Homo sapiens (Human), UniProt P29597). The data set is described as follows: Biochemical JAK kinase assay (LanthaScreen), Tyk2. Particulars: read-out: Tyk2 pKi (converted). The gist of the method:
(§1)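 LanthaScreen format: phospho-STAT1 (pTyr701) detected with 2 nM Tb antibody after 10 mM EDTA quench. Kinase step used Km-level ATP and 200 nM STAT1 peptide, 1 h at ambient after 1 h pre-incubation. Inhibition fitted to IC50, reported as pKi.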
A general note: TR-FRET usually uses a lanthanide donor and a delayed reading to cut background.

The target in the next data set is JAK2 (Homo sapiens (Human), UniProt O60674). Description: Biochemical JAK kinase assay (LanthaScreen), JAK2. To be noted: for Ki: read-out: JAK2 pKi (converted). The gist of the method:
as §1

For another data set, the target named is JAK1 (Homo sapiens (Human), UniProt P23458). Description: Biochemical JAK kinase assay (LanthaScreen), JAK1. To be noted: read-out: JAK1 pKi (converted). The gist of the method: as §1
Chain of JAK1 (P23458 whole entry): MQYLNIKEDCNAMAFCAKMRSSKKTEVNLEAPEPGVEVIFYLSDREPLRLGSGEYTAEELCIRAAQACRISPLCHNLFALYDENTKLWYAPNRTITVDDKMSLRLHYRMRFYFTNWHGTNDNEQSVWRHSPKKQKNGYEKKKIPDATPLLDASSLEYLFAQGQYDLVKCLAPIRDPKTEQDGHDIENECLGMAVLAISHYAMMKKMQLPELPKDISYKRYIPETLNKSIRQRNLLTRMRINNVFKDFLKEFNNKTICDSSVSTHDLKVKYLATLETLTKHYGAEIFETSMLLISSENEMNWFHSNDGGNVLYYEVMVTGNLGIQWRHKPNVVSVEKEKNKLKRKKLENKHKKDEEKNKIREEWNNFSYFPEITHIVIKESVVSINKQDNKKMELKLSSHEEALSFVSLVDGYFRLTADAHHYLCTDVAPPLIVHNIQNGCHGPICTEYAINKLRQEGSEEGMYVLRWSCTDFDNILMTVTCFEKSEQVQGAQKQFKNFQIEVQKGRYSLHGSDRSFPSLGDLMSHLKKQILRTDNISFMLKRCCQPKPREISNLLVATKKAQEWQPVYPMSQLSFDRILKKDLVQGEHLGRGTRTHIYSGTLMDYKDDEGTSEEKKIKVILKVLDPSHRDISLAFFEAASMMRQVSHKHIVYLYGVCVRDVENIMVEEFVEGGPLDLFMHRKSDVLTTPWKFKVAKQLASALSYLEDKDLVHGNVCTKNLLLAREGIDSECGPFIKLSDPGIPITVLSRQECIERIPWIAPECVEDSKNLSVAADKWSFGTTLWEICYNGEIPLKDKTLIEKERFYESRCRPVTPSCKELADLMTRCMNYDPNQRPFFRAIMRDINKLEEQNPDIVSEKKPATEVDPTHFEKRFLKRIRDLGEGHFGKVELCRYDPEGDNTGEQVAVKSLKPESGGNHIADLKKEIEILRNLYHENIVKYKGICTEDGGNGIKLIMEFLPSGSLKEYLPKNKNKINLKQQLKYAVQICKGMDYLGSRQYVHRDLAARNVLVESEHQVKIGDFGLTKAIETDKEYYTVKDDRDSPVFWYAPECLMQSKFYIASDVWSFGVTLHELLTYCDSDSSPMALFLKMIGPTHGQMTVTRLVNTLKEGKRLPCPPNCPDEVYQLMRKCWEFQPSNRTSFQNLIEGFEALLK
Another data set addresses JAK3 (Homo sapiens (Human), UniProt P52333). The data set is described as follows: Biochemical JAK kinase assay (LanthaScreen), JAK3. Particulars: read-out: JAK3 pKi (converted). The procedure, abridged:
as §1

A short description of data set [2]: Pharmacokinetics in plasma and lung in mouse after oral aspiration administration. The class given is in vivo. To be noted: male CD1 mice; for Lung Tissue AUC(0-24) / AUC(0-t): 0.2 mg/mL, two 25 μL increments; for Lung Tissue:Plasma AUC ratio: lung AUC to plasma AUC; for AUC(0-t): mouse, inhaled or intranasal, 0.01 mg/mouse, plasma, read-out: Plasma AUC(0-24). The procedure, abridged: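 Male CD1 mice given 0.2 mg/mL compound in 20% propylene glycol/pH 4 citrate buffer, two 25 μL increments by oral aspiration into the trachea under isoflurane. Plasma and lung homogenate sampled 0.167–24 hr and measured by LC-MS/MS. Non-compartmental analysis gave AUC(0-inf); lung-to-plasma ratio from lung (μg*hr/g) over plasma (μg*hr/mL) AUC.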

Chain of JAK3 (P52333 whole entry): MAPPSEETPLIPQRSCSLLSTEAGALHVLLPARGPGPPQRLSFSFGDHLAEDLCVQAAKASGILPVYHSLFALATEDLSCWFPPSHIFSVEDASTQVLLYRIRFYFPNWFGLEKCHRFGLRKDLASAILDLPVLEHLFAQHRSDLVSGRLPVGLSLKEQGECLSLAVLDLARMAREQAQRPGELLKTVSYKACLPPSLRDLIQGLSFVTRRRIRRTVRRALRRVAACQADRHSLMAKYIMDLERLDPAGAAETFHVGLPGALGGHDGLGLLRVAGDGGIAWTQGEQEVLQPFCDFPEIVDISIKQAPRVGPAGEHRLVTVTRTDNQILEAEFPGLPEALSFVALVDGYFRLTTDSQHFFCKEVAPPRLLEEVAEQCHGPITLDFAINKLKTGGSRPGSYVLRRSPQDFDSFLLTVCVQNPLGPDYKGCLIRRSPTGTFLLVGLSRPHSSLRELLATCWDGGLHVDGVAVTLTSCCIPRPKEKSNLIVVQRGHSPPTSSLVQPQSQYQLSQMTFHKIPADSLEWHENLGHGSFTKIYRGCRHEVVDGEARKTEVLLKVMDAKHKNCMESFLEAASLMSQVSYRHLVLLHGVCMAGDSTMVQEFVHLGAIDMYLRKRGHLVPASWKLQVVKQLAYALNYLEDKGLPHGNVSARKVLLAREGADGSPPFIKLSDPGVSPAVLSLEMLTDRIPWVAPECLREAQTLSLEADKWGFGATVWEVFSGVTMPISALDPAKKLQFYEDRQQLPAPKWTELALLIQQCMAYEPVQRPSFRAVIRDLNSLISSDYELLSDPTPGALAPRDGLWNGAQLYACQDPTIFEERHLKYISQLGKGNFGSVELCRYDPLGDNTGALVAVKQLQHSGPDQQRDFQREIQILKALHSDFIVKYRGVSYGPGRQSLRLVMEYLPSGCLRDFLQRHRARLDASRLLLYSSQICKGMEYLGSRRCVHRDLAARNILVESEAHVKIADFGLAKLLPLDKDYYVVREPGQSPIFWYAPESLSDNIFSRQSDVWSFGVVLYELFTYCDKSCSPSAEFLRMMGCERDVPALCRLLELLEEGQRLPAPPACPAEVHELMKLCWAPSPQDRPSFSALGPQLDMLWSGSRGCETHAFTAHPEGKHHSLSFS
Chain of TYK2 (P29597 whole entry): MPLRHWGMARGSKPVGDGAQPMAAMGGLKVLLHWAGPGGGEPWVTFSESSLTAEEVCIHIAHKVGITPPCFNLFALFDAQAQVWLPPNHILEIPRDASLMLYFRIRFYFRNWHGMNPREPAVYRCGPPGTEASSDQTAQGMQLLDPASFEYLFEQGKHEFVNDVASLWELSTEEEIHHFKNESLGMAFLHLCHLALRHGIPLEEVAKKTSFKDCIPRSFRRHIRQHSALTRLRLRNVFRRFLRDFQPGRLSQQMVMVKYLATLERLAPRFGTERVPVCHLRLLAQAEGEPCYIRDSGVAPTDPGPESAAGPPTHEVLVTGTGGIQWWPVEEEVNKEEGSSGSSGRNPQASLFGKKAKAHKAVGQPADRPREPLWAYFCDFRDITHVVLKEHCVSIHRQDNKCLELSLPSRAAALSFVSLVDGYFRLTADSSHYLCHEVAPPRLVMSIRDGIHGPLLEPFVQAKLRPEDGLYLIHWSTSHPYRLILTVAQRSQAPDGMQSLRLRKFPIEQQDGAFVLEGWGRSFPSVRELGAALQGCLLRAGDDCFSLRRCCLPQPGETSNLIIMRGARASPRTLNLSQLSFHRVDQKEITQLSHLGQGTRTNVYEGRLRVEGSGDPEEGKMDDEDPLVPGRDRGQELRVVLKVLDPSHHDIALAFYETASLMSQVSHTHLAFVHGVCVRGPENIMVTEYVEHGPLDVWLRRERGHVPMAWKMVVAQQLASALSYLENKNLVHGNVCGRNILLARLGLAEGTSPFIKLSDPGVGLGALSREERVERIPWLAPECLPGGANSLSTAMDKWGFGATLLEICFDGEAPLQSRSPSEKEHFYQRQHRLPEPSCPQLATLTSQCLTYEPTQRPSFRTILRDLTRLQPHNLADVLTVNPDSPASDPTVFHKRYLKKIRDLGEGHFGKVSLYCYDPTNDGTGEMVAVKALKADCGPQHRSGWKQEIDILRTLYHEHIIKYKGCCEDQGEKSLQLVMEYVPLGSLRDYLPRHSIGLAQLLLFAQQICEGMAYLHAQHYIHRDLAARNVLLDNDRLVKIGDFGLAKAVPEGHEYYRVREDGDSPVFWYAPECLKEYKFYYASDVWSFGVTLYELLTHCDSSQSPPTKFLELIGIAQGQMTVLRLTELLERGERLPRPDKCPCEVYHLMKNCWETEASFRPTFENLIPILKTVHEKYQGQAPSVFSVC
Chain of JAK2 (O60674 whole entry): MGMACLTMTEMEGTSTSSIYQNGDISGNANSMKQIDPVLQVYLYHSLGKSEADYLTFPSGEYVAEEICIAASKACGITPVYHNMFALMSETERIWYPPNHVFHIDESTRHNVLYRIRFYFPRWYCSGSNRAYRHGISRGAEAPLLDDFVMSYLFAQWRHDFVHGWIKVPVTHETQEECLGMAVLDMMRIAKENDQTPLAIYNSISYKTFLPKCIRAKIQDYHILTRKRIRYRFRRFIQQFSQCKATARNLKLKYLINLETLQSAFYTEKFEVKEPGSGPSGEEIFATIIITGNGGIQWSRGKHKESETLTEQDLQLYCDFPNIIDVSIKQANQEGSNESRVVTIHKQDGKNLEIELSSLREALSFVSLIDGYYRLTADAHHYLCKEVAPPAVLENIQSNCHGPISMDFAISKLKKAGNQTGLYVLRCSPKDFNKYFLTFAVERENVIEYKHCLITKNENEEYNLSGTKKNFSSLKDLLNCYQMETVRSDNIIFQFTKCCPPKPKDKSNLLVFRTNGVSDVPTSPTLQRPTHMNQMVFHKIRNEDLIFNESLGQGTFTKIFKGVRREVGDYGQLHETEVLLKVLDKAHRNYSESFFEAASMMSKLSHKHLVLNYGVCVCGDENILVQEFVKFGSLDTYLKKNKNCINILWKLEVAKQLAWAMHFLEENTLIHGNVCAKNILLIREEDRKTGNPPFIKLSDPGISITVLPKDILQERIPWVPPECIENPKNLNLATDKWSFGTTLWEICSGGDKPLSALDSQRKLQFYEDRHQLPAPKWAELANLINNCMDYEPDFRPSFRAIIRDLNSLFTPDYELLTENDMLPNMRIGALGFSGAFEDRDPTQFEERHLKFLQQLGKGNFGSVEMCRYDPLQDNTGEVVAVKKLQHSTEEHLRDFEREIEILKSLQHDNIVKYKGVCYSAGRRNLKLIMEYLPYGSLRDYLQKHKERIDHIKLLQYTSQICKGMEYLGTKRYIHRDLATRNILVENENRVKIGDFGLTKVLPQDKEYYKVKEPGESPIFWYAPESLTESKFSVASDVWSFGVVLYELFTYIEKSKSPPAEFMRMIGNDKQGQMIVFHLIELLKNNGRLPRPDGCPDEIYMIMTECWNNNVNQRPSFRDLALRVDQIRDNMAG

With `CCc1cc(O)ccc1-c1ccc2c(-c3nc(C4=CCN(C5CN(C)C5)CC4)c[nH]3)n[nH]c2c1` [Compound 15, 3-ethyl-4-(3-(4-(1-(1-methylazetidin-3-yl)-1,2,3,6-tetrahydropyridin-4-yl)-1H-imidazol-2-yl)-1H-indazol-6-yl)phenol], the IC50 in data set [1] was 10 to 31.6 nM. For the same compound, the Ki at TYK2 is 1 to 10 nM; on JAK1, 0.1 to 1 nM; on JAK3 it was 0.1 to 1 nM. Further, the “JAK2 pKi” value at JAK2 was “A (A represents a pKi value ≥10 (Ki≤0.1 nM))”. Further, the “Lung Tissue AUC(0-24)” value in data set [2] was “B (B denotes a value between 50 and 100)”. Besides, the “Lung Tissue:Plasma AUC ratio” value in data set [2] is “C (C denotes a ratio between 100 and 200)”. For the same compound, the AUC(0-t) in data set [2] is less than 500 ng·h/mL.

Consider `CCc1cc(O)ccc1-c1ccc2c(-c3nc(C4=CCN(C5CCC5)CC4)c[nH]3)n[nH]c2c1F` [Example 26], for which the IC50 in data set [1] was 10 to 31.6 nM. In addition, the Ki at TYK2 was 1 to 10 nM; on JAK2, 0.1 to 1 nM; at JAK1, 0.1 to 1 nM; at JAK3, 0.1 to 1 nM. Besides, the “Lung Tissue AUC(0-24)” value in data set [2] was “C (C denotes a value between 9 and 50)”. Besides, the “Lung Tissue:Plasma AUC ratio” value in data set [2] was “E (E denotes a ratio between 30 and 50)”. The AUC(0-t) in data set [2] is less than 500 ng·h/mL.

As for `CCc1cc(O)ccc1-c1ccc2c(-c3nc(C4=CC5COCC(C4)N5)c[nH]3)n[nH]c2c1` (stereo not shown) [Compound 7, 4-(3-(4-(3-oxa-9-azabicyclo[3.3.1]non-6-en-7-yl)-1H-imidazol-2-yl)-1H-indazol-6-yl)-3-ethylphenol], the IC50 in data set [1] was 10 to 31.6 nM. The Ki at TYK2 is 1 to 10 nM. The “JAK2 pKi” value on JAK2 is recorded as “A (A represents a pKi value ≥10 (Ki≤0.1 nM))”. Moreover, on JAK1, the Ki was 0.1 to 1 nM. Moreover, at JAK3, the Ki was 0.1 to 1 nM. In data set [2], the “Lung Tissue AUC(0-24)” value is “B (B denotes a value between 50 and 100)”; the “Lung Tissue:Plasma AUC ratio” value was “C (C denotes a ratio between 100 and 200)”; the AUC(0-t) was less than 500 ng·h/mL.

In the case of `CCc1cc(O)ccc1-c1ccc2c(-c3nc(C4=CCCNC4)c[nH]3)n[nH]c2c1` [Compound 4, 3-ethyl-4-(3-(4-(1,2,5,6-tetrahydropyridin-3-yl)-1H-imidazol-2-yl)-1H-indazol-6-yl)phenol], the IC50 in data set [1] is 3.16 to 10 nM. The Ki at TYK2 was 1 to 10 nM; on JAK2, 0.1 to 1 nM; on JAK1 it was 0.1 to 1 nM; on JAK3 it was 0.1 to 1 nM. In addition, the “Lung Tissue AUC(0-24)” value in data set [2] was “B (B denotes a value between 50 and 100)”. The “Lung Tissue:Plasma AUC ratio” value in data set [2] was “C (C denotes a ratio between 100 and 200)”. Besides, the AUC(0-t) in data set [2] fell in the range of 500 to 1000 ng·h/mL.

For the compound `CCc1cc(O)ccc1-c1ccc2c(-c3nc(C4=C[C@H](CO)NC4)c[nH]3)n[nH]c2c1F` [Compound 8, (R)-3-ethyl-4-(7-fluoro-3-(4-(5-(hydroxymethyl)-2,5-dihydro-1H-pyrrol-3-yl)-1H-imidazol-2-yl)-1H-indazol-6-yl)phenol], in data set [1], the IC50 was 10 to 31.6 nM. Besides, the Ki at TYK2 is 1 to 10 nM. Besides, on JAK2, the “JAK2 pKi” value is “A (A represents a pKi value ≥10 (Ki≤0.1 nM))”. The Ki at JAK1 is 0.1 to 1 nM. The Ki at JAK3 was 0.1 to 1 nM. Further, in data set [2], the “Lung Tissue AUC(0-24)” value is “B (B denotes a value between 50 and 100)”; the “Lung Tissue:Plasma AUC ratio” value is “C (C denotes a ratio between 100 and 200)”; the AUC(0-t) is 500 to 1000 ng·h/mL.
